This passage reports IC50 results from the Kinase Knowledgebase extract (Sharma et al. 2016).

For the assay, the target named is MAPK14 (UniProt Q16539). Put plainly: p38 Kinase Inhibition Assay.
Sequence of MAPK14 (Q16539 whole entry, looked up): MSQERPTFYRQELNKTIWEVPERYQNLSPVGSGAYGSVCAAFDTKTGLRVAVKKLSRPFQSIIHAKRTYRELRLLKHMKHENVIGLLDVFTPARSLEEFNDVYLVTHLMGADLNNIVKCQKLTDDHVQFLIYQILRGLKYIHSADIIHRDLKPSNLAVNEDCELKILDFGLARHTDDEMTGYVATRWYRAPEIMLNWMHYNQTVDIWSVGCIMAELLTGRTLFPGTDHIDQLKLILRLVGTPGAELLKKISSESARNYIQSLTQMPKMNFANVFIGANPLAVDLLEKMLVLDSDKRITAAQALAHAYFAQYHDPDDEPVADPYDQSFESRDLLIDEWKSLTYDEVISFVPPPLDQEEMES
Take `Cc1ccccc1C(=O)N1CCC(Cc2ccccc2)CC1`: the 50% inhibitory concentration (IC50) (commonly the concentration at which inhibition is half-maximal) fell in the range of 200 to 1500 nM. Turning to `CN(C)c1ccccc1C(=O)N1CCC(Cc2ccccc2)CC1`, the IC50 was 200 to 1500 nM. Compound `O=CNc1ccc(C(=O)N2CCC(Cc3ccccc3)CC2)cc1` displayed a 50% inhibitory concentration (IC50) of 200 to 1500 nM. The result for `CNc1ccc(C(=O)N2CCC(Cc3ccccc3)CC2)c(Cl)c1` reads 200 to 1500 nM; that for `O=C(c1ccccc1O)N1CCC(Cc2ccccc2)CC1`, 200 to 1500 nM; that for `O=C(c1ccccc1Br)N1CCC(Cc2ccccc2)CC1`, 200 to 1500 nM. As for `COc1ccc(C(=O)N2CCC(Cc3ccccc3)CC2)c(OC)c1`, the 50% inhibitory concentration (IC50) lay in the range of 200 to 1500 nM.

In the case of `O=C(c1ccccc1I)N1CCC(Cc2ccccc2)CC1`, the IC50 lay in the range of 200 to 1500 nM. The result for `CN(C)c1cccc(C(=O)N2CCC(Cc3ccccc3)CC2)c1` reads 200 to 1500 nM; that for `O=C(c1ccccc1Cl)N1CCC(Cc2ccccc2)CC1`, 200 to 1500 nM. Compound `CN(C)c1ccc(C(=O)N2CCC(Cc3ccccc3)CC2)cc1` returned an IC50 of 200 to 1500 nM. `CC(=O)Nc1ccc(C(=O)N2CCC(Cc3ccccc3)CC2)cc1` yielded a half-inhibitory concentration (IC50) of 200 to 1500 nM.

`Nc1ccc(C(=O)N2CCC(Cc3ccccc3)CC2)cc1` yielded a 50% inhibitory concentration (IC50) of 200 to 1500 nM. As for `CN(C)c1ccc(C(=O)N2CCC(Cc3ccccc3)CC2)c(Cl)c1`, the figure is 200 to 1500 nM; as for `CNc1ccccc1C(=O)N1CCC(Cc2ccccc2)CC1`, 200 to 1500 nM. Turning to `Nc1ccc(C(=O)N2CCC(Cc3ccccc3)CC2)c(Cl)c1`, the IC50 lay within 200 to 1500 nM. Take `O=C(c1ccccc1)N1CCC(Cc2ccccc2)CC1`: the IC50 is 200 to 1500 nM. Compound `COc1cccc(OC)c1C(=O)N1CCC(Cc2ccccc2)CC1` registered an IC50 of 200 to 1500 nM. As for `CC1(Cc2ccccc2)CCN(C(=O)c2ccccc2Br)CC1`, the figure is 200 to 1500 nM. The result for `S=C(c1ccccc1)N1CCC(Cc2ccccc2)CC1` reads 200 to 1500 nM.
